# Experimental data from ChEMBL document CHEMBL3045932 (J Pestic Sci, 2005).
# Calls of active or inactive are those of the source. The calls are words filed in the database; no cut-off is given here.
# Columns and labels:
# Echinochloa oryzicola [1] = test: Herbicidal activity against 2.5-leaf stage of Echinochloa oryzicola assessed as growth inhibition at 2.5 g/a by greenhouse test; assay type: functional; conditions: read-out: GI
# Echinochloa oryzicola [2] = test: Herbicidal activity against Echinochloa oryzicola assessed as shoot length after 7 days by hydroponics test in presence of tributylphosphate; assay type: functional, organism-based
# Oryza sativa [3] = test: Toxicity in Oryza sativa (rice) assessed as shoot length after 7 days by hydroponics test; assay type: organism-based; conditions: 168 h, read-out: I50
# Oryza sativa [4] = test: Toxicity in zero transplanted Oryza sativa (rice) assessed as growth inhibition at 5 to 10 g/a by greenhouse test; assay type: organism-based; conditions: in vivo
# Echinochloa oryzicola [5] = test: Herbicidal activity against Echinochloa oryzicola assessed as shoot length after 7 days by hydroponics test in presence of fenitrothion; assay type: functional, organism-based
# Oryza sativa [6] = test: Toxicity in 2 cm transplanted Oryza sativa (rice) assessed as growth inhibition at 10 g/a by greenhouse test; assay type: organism-based; conditions: in vivo
# [7] = Drug metabolism assessed as parent compound level in presence of porcine esterase; assay type: physicochemical; conditions: pig, isolated protein
# [8] = Drug metabolism assessed as formation of 1-[1-(3,5-dichlorophenyl)-1-methylethyl]-4-methyl-3-phenyl-3-pyrrolin-2-one in presence of porcine esterase and 1 uM triphenyl phosphate; assay type: physicochemical; conditions: pig, isolated protein
# Oryza sativa [9] = test: Toxicity in zero transplanted Oryza sativa (rice) assessed as growth inhibition at 5 to 10 g/a by greenhouse test in presence of fenitrothion; assay type: organism-based; conditions: in vivo
# [10] = Drug metabolism assessed as formation of 1-[1-(3,5-dichlorophenyl)-1-methylethyl]-4-methyl-3-phenyl-3-pyrrolin-2-one in presence of porcine esterase; assay type: physicochemical; conditions: pig, isolated protein
# Echinochloa oryzicola [11] = test: Drug metabolism in 2.5-leaf stage Echinochloa oryzicola assessed as 1-[1-(3,5-dichlorophenyl)-1-methylethyl]-4-methyl-3-phenyl-3-pyrrolin-2-one level per gram of fresh weight at 25 nM after 6 days; assay type: ADME, organism-based; conditions: in vivo, 144 h, 0.025 µM
# Oryza sativa [12] = test: Toxicity in zero transplanted Oryza sativa (rice) assessed as growth inhibition at 5 to 10 g/a by greenhouse test in presence of triphenyl phosphate; assay type: organism-based; conditions: in vivo
# Echinochloa oryzicola [13] = test: Herbicidal activity against 2.5-leaf stage of Echinochloa oryzicola assessed as growth inhibition at 2.5 g/a by greenhouse test in presence of fenitrothion; assay type: functional, organism-based
# Echinochloa oryzicola [14] = test: Herbicidal activity against Echinochloa oryzicola assessed as shoot length after 7 days by hydroponics test; assay type: functional, organism-based; conditions: 168 h, read-out: I50
# Echinochloa oryzicola [15] = test: Herbicidal activity against Echinochloa oryzicola assessed as shoot length after 7 days by hydroponics test in presence of triphenyl phosphate; assay type: functional, organism-based
# [16] = Drug metabolism assessed as parent compound level in presence of porcine esterase and 10 uM of triphenyl phosphate; assay type: physicochemical; conditions: pig, isolated protein
# Oryza sativa [17] = test: Drug metabolism in 2.5-leaf stage Oryza sativa (rice) assessed as 1-[1-(3,5-dichlorophenyl)-1-methylethyl]-4-methyl-3-phenyl-3-pyrrolin-2-one level per gram of fresh weight at 25 nM after 6 days; assay type: ADME, organism-based; conditions: in vivo, 144 h, 0.025 µM
# [18] = Drug metabolism assessed as parent compound level in presence of porcine esterase and 1 uM of triphenyl phosphate; assay type: physicochemical; conditions: pig, isolated protein
# [19] = Drug metabolism assessed as formation of 1-[1-(3,5-dichlorophenyl)-1-methylethyl]-4-methyl-3-phenyl-3-pyrrolin-2-one in presence of porcine esterase and 10 uM triphenyl phosphate; assay type: physicochemical; conditions: pig, isolated protein
# Echinochloa oryzicola [20] = test: Herbicidal activity against 2.5-leaf stage of Echinochloa oryzicola assessed as growth inhibition at 2.5 g/a by greenhouse test in presence of triphenyl phosphate; assay type: functional, organism-based
# Echinochloa oryzicola [21] = test: Herbicidal activity against Echinochloa oryzicola assessed as shoot length after 7 days by hydroponics test in presence of 1-aminobenzotriazole; assay type: functional, organism-based
structure (smiles),measurement,setting,value
COC(=O)C1(c2ccccc2)C(=O)N(C(C)(C)c2cc(Cl)cc(Cl)c2)C=C1C (stereo not given),inhibition of growth at 250 g/ha,Echinochloa oryzicola [1],96%
same,Activity,Echinochloa oryzicola [2],Active
same,IC50,Oryza sativa [3],2630 nM
same,Activity,Oryza sativa [4],Toxic
same,Activity,Echinochloa oryzicola [5],inactive
same,Activity,Oryza sativa [6],Non-toxic
same,Drug metabolism,[7],1.97 µM
same,Drug metabolism,[8],2.69 µM
same,Activity,Oryza sativa [9],Non-toxic
same,Drug metabolism,[10],3 µM
same,Drug metabolism,Echinochloa oryzicola [11],1.88 nM
same,Activity,Oryza sativa [12],Non-toxic
same,growth inhibition (GI),Echinochloa oryzicola [13],inactive
same,IC50,Echinochloa oryzicola [14],25 nM
same,Activity,Echinochloa oryzicola [15],inactive
same,Drug metabolism,[16],4.26 µM
same,Drug metabolism,Oryza sativa [17],0.47 nM
same,Drug metabolism,[18],2.5 µM
same,Drug metabolism,[19],0.66 µM
same,growth inhibition (GI),Echinochloa oryzicola [20],inactive
same,Activity,Echinochloa oryzicola [21],Active
CC1=C(c2ccccc2)C(=O)N(C(C)(C)c2cc(Cl)cc(Cl)c2)C1,IC50,Oryza sativa [3],115 nM
same,growth inhibition (GI),Echinochloa oryzicola [13],Active
same,IC50,Echinochloa oryzicola [14],12 nM
same,growth inhibition (GI),Echinochloa oryzicola [20],Active
